In brackets after ≈: the same amount, converted by molar mass. Several values for one entry are separate records, joined by “and”; a condition that tells them apart may be missing. Equal entries are not always repeated. Where two headings read alike, the source gives them in different places.
Key:
[1] = system: A/Sydney/5/97 BVLV015 (H3N2); assay: Plaque reduction assay (PRA) in MDCK cells; type: cell-based, influenza A H3N2
Procedure: (§1) Madin Darby Canine Kidney (MDCK) cells are seeded into six well tissue culture plates and grown to confluency via standard methods. Influenza viruses are diluted in a minimal volume of phosphate buffered saline supplemented with 0.2% bovine serum albumin to yield an estimated titre of 50–100 plaque forming units (pfu) per well. After adsorption to the MDCK cells for one hour at 37° C. in a 5% CO2 atmosphere the viral inocula is aspirated and replaced with viral growth media (minimal Eagle's media supplemented with BSA, trypsin and insulin/transferrin/selenium at optimal concentrations) containing sufficient agar or agarose (generally 1–2%) to cause the media to gel at room temperature and at 37° C. in a 5% CO2 atmosphere until plaques develop (generally 2–4 days). Plaques can be visualised with a suitable stain (e.g. 0.4% crystal violet in formal saline) before counting.

[2] = system: A/Panama/2007/99 BVLV008 (H3N2); assay: Plaque reduction assay (PRA) in MDCK cells; type: cell-based, influenza A H3N2; conditions: for EC50: Influenza A virus, H3N2, MDCK, read-out: EC50 PRA A/Pan
Procedure: as §1

[3] = system: A/Victoria/3/75 BVLV017 (H3N2); assay: Plaque reduction assay (PRA) in MDCK cells; type: cell-based, influenza A H3N2; conditions: for EC50: Influenza A virus, MDCK, reduces plaque numbers by 50%, A/Victoria/3/75 (H3N2), read-out: EC50 PRA A/Vic
Procedure: as §1

[4] = system: recent clinical isolates; conditions: in vitro assays involving recent clinical isolates, Woods et al 1993; cited from earlier work
[5] = system: Influenza B/Harbin/7/95; type: cell-based; conditions: concentration that inhibited CPE by 50%; MDCK cells, up to 72 hours, MTT
[6] = system: Influenza A/Sydney/5/97; type: cell-based; conditions: concentration that inhibited CPE by 50%; MDCK cells, up to 72 hours, MTT
[7] = Rat lung retention assay (intra-tracheal dosing, compound level in lung tissue); type: in vivo; conditions: for [cmpd] / Mean [cmpd]: rat lung tissue; for [cmpd]: individual animal
Procedure: Rodents are anaesthetised and dosed with compound of interest by the intra-tracheal route at a dose volume of 0.8 ml/kg. The rodent is then held in the vertical position until full recovery is achieved. […] Any analytical method suitable for detection of this type of compound may be used. The time at which levels of compound fall below the sensitivity of the analytical techniques identified will determine the residency time of the compound in lung tissue.
Please note that all experiments included a co-dosed internal standard, namely compound 3 of International Patent Publication No. WO 02/20514, to permit comparison. The data are expressed as a ratio with respect to this compound, the structure of which is shown below.

[8] = system: B/Hong Kong/5/72 BVLV012; assay: Plaque reduction assay (PRA) in MDCK cells; type: cell-based, influenza B; conditions: for EC50: Influenza B virus, MDCK, reduces plaque numbers by 50%, B/Hong Kong/5/72, read-out: EC50 PRA B/HongK
Procedure: as §1

[9] = system: A/New Caledonia/20/99 BVLV008 (H1N1); assay: Plaque reduction assay (PRA) in MDCK cells; type: cell-based, influenza A H1N1; conditions: for EC50: Influenza A virus, H1N1, MDCK
Procedure: as §1

[10] = system: A/WSN/33 BVLV09 (H1N1); assay: Plaque reduction assay (PRA) in MDCK cells; type: cell-based, influenza A H1N1
Procedure: as §1

[11] = system: A/Bayern/7/95 BVL006 (H1N1); assay: Plaque reduction assay (PRA) in MDCK cells; type: cell-based, influenza A H1N1
Procedure: as §1

[12] = system: B/Yamanashi/166/98 BVLV007; assay: Plaque reduction assay (PRA) in MDCK cells; type: cell-based, influenza B
Procedure: as §1

[13] = reduces plaque numbers by 50%, A/Panama/2007/99 (H3N2)
[14] = rat, in vivo, 0.1 mg/kg, Mean [cmpd] ng/g
[15] = reduces plaque numbers by 50%, A/New Caledonia/20/99 (H1N1)

**Q.** What does the source list for `CC(=O)N[C@@H]1C(N=C(N)N)C=C(C(=O)O)O[C@H]1[C@H](O)[C@H](O)CO` (single isomer, unassigned) [Compound A, 4-guanidino-2-deoxy-2,3-dehydro-N-acetylneuraminic acid, reference compound]?
**A.** EC50 ([1]; Influenza A virus, MDCK, reduces plaque numbers by 50%, A/Sydney/5/97 (H3N2), read-out: EC50 PRA A/Syd): 2.4 ng/mL (≈ 7.22 nM); EC50 [2, 13]: 2.7 ng/mL (≈ 8.12 nM); EC50 PRA A/Pan [2, 13]: 3 ng/mL (≈ 9.03 nM); EC50 [3]: 5.5 ng/mL (≈ 16.6 nM); EC50 [4]: 20 to 160 nM; ID50 B/Harbin/7/95 [5]: 13 ± 11 ng/mL (≈ 39.1 nM); ID50 A/Sydney/5/97 [6]: 23 ± 24 ng/mL (≈ 69.2 nM); Ratio Mean [lung] [cmpd]/PCT AU01/01128 compound 3 ([7]; rat, in vivo, 0.1 mg/kg, 48 h): 0.26; Ratio Mean [lung] [cmpd]/PCT AU01/01128 compound 3 ([7]; rat, in vivo, 0.1 mg/kg, 168 h): 0.08; concentration at 48 h [7, 14]: 352 ng/g; concentration at 168 h [7, 14]: 61 ng/g; concentration at 48 h ([7]; rat, in vivo, 0.1 mg/kg, [cmpd] ng/g): 421 ng/g; EC50 [8]: 21 ng/mL (≈ 63.2 nM); EC50 [9, 15]: 0.27 ng/mL (≈ 0.812 nM); EC50 PRA A/New [9, 15]: 0.23 ng/mL (≈ 0.692 nM); EC50 ([10]; Influenza A virus, MDCK, reduces plaque numbers by 50%, A/WSN/33 (H1N1)): 56 ng/mL (≈ 169 nM); EC50 PRA A/WSN ([10]; reduces plaque numbers by 50%, A/WSN/33 (H1N1)): > 100 ng/mL; EC50 ([11]; Influenza A virus, MDCK, reduces plaque numbers by 50%, A/Bayern/7/95 (H1N1), read-out: EC50 PRA A/Bay): 35 ng/mL (≈ 105 nM)

**Q.** Which EC50 [2, 13] does the source give for `NC12CC3CC(CC(C3)C1)C2` [Amantadine] here?
**A.** 157 ng/mL (≈ 1040 nM)

**Q.** What about the EC50 [3] of the same molecule?
**A.** 220 ng/mL (≈ 1450 nM)

**Q.** And the EC50 [8]?
**A.** > 10000 ng/mL

**Q.** What about the EC50 ([12]; Influenza B virus, MDCK, reduces plaque numbers by 50%, B/Yamanashi/166/98, read-out: EC50 PRA B/Yam) of the same molecule?
**A.** 2060 ng/mL (≈ 13600 nM)

**Q.** What about the EC50 [9, 15] of the same molecule?
**A.** 11 ng/mL (≈ 72.7 nM)

**Q.** For `CC(=O)N[C@H]1[C@H]([C@H](OC(=O)NCCCCNC(=O)c2cccc(C(=O)NCCCCNC(=O)O[C@@H]([C@@H]3OC(C(=O)O)=C[C@H](NC(=N)N)[C@H]3NC(C)=O)[C@H](O)CO)c2)[C@H](O)CO)OC(C(=O)O)=C[C@@H]1NC(=N)N` [Compound 1], which “Ratio Mean [lung] [cmpd]/PCT AU01/01128 compound 3” value (“Ratio Mean [lung]” below) ([7]; rat, in vivo, 0.1 mg/kg, 48 h) is on record?
**A.** 0.44

**Q.** What about the “Ratio Mean [lung]” value ([7]; rat, in vivo, 0.1 mg/kg, 168 h) of the same molecule?
**A.** 0.41

**Q.** And the concentration at 48 h [7, 14]?
**A.** 1280 ng/g

**Q.** What about the concentration at 168 h [7, 14] of the same molecule?
**A.** 372 ng/g

**Q.** Which “ID50 B/Harbin/7/95” value [5] does the source give for `CC(=O)N[C@H]1[C@H]([C@H](OC(=O)NCCCCNS(=O)(=O)c2cccc(S(=O)(=O)NCCCCNC(=O)O[C@@H]([C@@H]3OC(C(=O)O)=C[C@H](NC(=N)N)[C@H]3NC(C)=O)[C@H](O)CO)c2)[C@H](O)CO)OC(C(=O)O)=C[C@@H]1NC(=N)N` [Compound 3] here?
**A.** 0.07 ng/mL (≈ 0.0639 nM)

**Q.** And the “ID50 A/Sydney/5/97” value [6]?
**A.** 0.1 ng/mL (≈ 0.0913 nM)

**Q.** And the “Ratio Mean [lung]” value ([7]; rat, in vivo, 0.1 mg/kg, 48 h)?
**A.** 0.49

**Q.** And the “Ratio Mean [lung]” value ([7]; rat, in vivo, 0.1 mg/kg, 168 h)?
**A.** 0.36

**Q.** And the concentration at 48 h [7, 14]?
**A.** 1410 ng/g

**Q.** What about the concentration at 168 h [7, 14] of the same molecule?
**A.** 329 ng/g

**Q.** With `CC(=O)N[C@@H]1[C@@H](NC(=N)N)C=C(C(=O)O)O[C@H]1C(OC(=O)NCCC(=O)NCc1ccc(CNC(=O)CCNC(=O)O[C@@H]([C@@H]2OC(C(=O)O)=C[C@H](NC(=N)N)[C@H]2NC(C)=O)[C@H](O)CO)cc1)[C@H](O)CO` (stereo partly drawn) [Compound 4] as the molecule, how does the “ID50 B/Harbin/7/95” value [5] read?
**A.** 0.4 ng/mL (≈ 0.402 nM)

**Q.** What about the “ID50 A/Sydney/5/97” value [6] of the same molecule?
**A.** 0.3 ng/mL (≈ 0.302 nM)

**Q.** With `CC(=O)N[C@H]1[C@H]([C@H](OC(=O)NCCCNC(=O)c2ccc(C(=O)NCCCNC(=O)O[C@@H]([C@@H]3OC(C(=O)O)=C[C@H](NC(=N)N)[C@H]3NC(C)=O)[C@H](O)CO)cc2)[C@H](O)CO)OC(C(=O)O)=C[C@@H]1NC(=N)N` [Compound 5] as the molecule, how does the “EC50 PRA A/Syd” value [1] read?
**A.** 0.05 ng/mL (≈ 0.0503 nM)

**Q.** What about the “EC50 PRA A/Pan” value [2] of the same molecule?
**A.** 0.03 ng/mL (≈ 0.0302 nM)

**Q.** What about the “EC50 PRA A/Vic” value [3] of the same molecule?
**A.** 0.003 ng/mL (≈ 0.00302 nM)

**Q.** What about the “[cmpd]” value ([7]; 48 hrs, 0.1 mg/kg intra-tracheal, 0.1 mg/kg) of the same molecule?
**A.** 1325 ng/g and 750 ng/g and 778 ng/g

**Q.** And the “Mean [cmpd]” value ([7]; 48 hrs, 0.1 mg/kg intra-tracheal)?
**A.** 951 ng/g

**Q.** And the “[cmpd]” value ([7]; 168 hrs, 0.1 mg/kg intra-tracheal, 0.1 mg/kg)?
**A.** 272 ng/g and 636 ng/g and 300 ng/g

**Q.** What about the “Mean [cmpd]” value ([7]; 168 hrs, 0.1 mg/kg intra-tracheal) of the same molecule?
**A.** 403 ng/g

**Q.** And the “Ratio Mean [lung]” value ([7]; rat lung, 48 hrs, 0.1 mg/kg intra-tracheal)?
**A.** 0.68

**Q.** What about the “Ratio Mean [lung]” value ([7]; rat lung, 168 hrs, 0.1 mg/kg intra-tracheal) of the same molecule?
**A.** 0.41

**Q.** And the “EC50 PRA B/HongK” value [8]?
**A.** 0.316 ng/mL (≈ 0.318 nM)

**Q.** What about the “EC50 PRA B/Yam” value [12] of the same molecule?
**A.** 0.022 ng/mL (≈ 0.0221 nM)

**Q.** And the “EC50 PRA A/New” value [9]?
**A.** 0.06 ng/mL (≈ 0.0603 nM)

**Q.** And the “EC50 PRA A/WSN” value [10]?
**A.** 0.02 ng/mL (≈ 0.0201 nM)

**Q.** And the “EC50 PRA A/Bay” value [11]?
**A.** 0.009 ng/mL (≈ 0.00905 nM)

**Q.** Which “ID50 B/Harbin/7/95” value [5] does the source give for `CC(=O)N[C@H]1[C@H]([C@H](OC(=O)NCCCCCCNC(=O)c2ccc(C(=O)NCCCCCCNC(=O)O[C@@H]([C@@H]3OC(C(=O)O)=C[C@H](NC(=N)N)[C@H]3NC(C)=O)[C@H](O)CO)cc2)[C@H](O)CO)OC(C(=O)O)=C[C@@H]1NC(=N)N` [Compound 6] here?
**A.** 0.9 ng/mL (≈ 0.834 nM)

**Q.** What about the “ID50 A/Sydney/5/97” value [6] of the same molecule?
**A.** 0.2 ng/mL (≈ 0.185 nM)
